According to ChEMBL document CHEMBL1201862, “PubChem BioAssay data set” (2004):
The source made the active and inactive calls.

Experiments:
[1] = molecular target: 26S proteasome non-ATPase regulatory subunit 14 (Homo sapiens, UniProt O00487); assay: inhibition of proteasome subunit RPN11 – biochemical, fluorescence polarization, uHTS hits, confirmation (AID 602368); type: functional
[2] = molecular target: 72 kDa type IV collagenase (Homo sapiens, UniProt P08253); assay: Dose Response validation of uHTS RPN11 inhibitor hits using a MMP-2 Fluorescence assay.; type: functional
Prothrombin = Prothrombin (Bos taurus, UniProt P00735); assay: thrombin protease inhibitors – biochemical, fluorescence polarization, uHTS hits, dose response (AID 602369); type: functional
Cysteine protease ATG4B = molecular target: T1, Cysteine protease ATG4B (Homo sapiens, UniProt Q9Y4P1); type: functional;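 further: Fluorescence-based dose-response confirmation assay measuring inhibition of ATG4B activity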
T1 sequence (Q9Y4P1 whole entry): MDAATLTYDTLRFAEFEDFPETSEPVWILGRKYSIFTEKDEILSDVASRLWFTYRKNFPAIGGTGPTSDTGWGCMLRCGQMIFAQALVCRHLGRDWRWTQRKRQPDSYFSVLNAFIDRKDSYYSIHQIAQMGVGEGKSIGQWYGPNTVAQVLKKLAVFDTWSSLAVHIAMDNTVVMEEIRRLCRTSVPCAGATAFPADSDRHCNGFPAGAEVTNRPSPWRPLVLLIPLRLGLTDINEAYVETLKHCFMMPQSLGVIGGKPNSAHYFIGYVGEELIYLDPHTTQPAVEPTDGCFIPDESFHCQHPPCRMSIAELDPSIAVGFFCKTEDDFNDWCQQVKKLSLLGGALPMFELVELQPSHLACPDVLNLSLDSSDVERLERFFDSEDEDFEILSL

[3] = molecular target: T2, Voltage-gated N-type calcium channel alpha-1B subunit/Amyloid beta A4 precursor protein-binding family A member 1 (Homo sapiens, UniProt Q00975+Q02410); type: protein assay
[4] = molecular target: T3, Histone-lysine N-methyltransferase NSD2 (Homo sapiens, UniProt O96028); type: biochemical
T3 sequence (O96028 whole entry): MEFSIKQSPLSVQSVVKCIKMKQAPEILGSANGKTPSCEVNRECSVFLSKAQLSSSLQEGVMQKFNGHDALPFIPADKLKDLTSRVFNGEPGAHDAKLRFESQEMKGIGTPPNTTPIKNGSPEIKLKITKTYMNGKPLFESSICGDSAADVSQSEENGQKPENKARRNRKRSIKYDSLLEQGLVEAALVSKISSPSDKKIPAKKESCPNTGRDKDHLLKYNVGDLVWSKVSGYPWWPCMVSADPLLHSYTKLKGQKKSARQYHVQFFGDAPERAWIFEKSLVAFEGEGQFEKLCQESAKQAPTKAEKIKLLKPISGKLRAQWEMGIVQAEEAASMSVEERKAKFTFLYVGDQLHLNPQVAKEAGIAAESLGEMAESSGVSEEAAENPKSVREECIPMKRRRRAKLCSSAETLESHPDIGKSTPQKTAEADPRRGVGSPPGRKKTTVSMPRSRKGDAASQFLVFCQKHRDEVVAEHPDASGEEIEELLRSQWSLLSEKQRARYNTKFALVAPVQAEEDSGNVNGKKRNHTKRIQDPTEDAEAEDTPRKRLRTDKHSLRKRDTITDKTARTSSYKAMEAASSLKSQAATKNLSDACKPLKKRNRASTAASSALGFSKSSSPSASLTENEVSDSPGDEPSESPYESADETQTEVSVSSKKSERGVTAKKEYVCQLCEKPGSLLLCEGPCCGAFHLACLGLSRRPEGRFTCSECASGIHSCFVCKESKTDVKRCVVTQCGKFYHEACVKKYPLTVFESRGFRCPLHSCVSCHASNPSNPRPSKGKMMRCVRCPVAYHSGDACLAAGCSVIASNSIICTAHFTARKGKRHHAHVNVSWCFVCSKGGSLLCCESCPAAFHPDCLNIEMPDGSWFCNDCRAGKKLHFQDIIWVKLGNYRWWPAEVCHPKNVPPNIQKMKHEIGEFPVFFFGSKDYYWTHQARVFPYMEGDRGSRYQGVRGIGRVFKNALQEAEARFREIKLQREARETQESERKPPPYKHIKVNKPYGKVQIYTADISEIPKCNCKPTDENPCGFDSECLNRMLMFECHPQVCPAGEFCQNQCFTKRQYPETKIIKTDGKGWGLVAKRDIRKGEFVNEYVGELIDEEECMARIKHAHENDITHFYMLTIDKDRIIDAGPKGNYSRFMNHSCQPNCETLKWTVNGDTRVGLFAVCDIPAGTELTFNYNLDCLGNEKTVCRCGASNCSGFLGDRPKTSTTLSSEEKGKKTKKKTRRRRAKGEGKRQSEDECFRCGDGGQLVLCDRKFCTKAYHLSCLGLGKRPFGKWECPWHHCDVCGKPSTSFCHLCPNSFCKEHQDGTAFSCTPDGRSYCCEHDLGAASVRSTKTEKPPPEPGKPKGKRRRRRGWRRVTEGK

Aminopeptidase N = molecular target: T4, Aminopeptidase N (Plasmodium falciparum FcB1/Columbia, UniProt O96935); assay: malaria alanyl aminopeptidase activity blockers – biochemical, fluorogenic H-Leu-NHMec substrate, 1536-well (AID 1445); parameters: species or system Plasmodium falciparum 3D7, 3D7
T4 sequence (O96935 whole entry): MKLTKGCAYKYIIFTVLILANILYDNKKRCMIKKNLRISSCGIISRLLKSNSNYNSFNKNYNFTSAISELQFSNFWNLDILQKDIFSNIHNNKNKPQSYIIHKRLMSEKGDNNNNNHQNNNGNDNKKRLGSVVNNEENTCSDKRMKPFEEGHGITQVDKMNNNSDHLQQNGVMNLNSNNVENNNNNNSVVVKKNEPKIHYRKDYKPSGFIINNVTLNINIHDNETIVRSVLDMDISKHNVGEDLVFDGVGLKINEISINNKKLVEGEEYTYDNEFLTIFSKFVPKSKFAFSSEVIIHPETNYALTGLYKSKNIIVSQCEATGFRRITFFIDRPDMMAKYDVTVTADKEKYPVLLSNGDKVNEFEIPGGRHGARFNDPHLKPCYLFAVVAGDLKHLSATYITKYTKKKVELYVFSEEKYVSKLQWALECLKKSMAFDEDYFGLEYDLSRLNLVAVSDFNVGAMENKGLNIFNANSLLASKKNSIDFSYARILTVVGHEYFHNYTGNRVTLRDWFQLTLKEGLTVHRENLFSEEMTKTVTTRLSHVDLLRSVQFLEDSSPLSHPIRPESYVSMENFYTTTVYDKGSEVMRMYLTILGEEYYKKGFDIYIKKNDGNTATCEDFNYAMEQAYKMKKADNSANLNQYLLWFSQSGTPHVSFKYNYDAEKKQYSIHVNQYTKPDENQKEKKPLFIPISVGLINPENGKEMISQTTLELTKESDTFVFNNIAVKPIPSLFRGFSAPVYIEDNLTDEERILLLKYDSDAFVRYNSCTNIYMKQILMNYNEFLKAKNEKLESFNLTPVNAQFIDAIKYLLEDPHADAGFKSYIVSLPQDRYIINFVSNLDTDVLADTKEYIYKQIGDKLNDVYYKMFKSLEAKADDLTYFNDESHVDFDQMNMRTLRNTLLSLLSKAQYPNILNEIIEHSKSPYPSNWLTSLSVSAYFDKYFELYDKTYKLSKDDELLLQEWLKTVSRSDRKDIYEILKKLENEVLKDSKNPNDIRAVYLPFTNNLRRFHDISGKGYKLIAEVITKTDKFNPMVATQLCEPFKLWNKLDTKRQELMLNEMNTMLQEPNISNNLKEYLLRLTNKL

[5] = molecular target: T2, Voltage-gated N-type calcium channel alpha-1B subunit/Amyloid beta A4 precursor protein-binding family A member 1; type: protein assay; remark: listed apart in the source
Phospholipase A2 = Phospholipase A2 (Homo sapiens, UniProt P04054); type: functional;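 further: confirmatory dose-response counterscreen on phospholipase A2, testing hits that came from an ultra-high-throughput screen for ATG4B inhibitors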
[6] = molecular target: Luciferin 4-monooxygenase (Photinus pyralis, UniProt P08659); assay: Counter Screen for Luciferase-based Assay Positives. [Related pubchem assays: 620, 618, 411 ]
[7] = molecular target: E3 ubiquitin-protein ligase Mdm2/Protein Mdm4 (Homo sapiens, UniProt O15151+Q00987); assay: disruption of Mdm2/MdmX protein binding – luminescence detection, dose response (AID 504593); type: functional
HT-1080 = assay: HT1080 cell viability loss – fluorescence readout (AID 620); type: functional, cell-based; details: Homo sapiens
[8] = molecular target: Aryl hydrocarbon receptor (Homo sapiens, UniProt P35869); assay: Luminescence-based cell-based high throughput dose response assay for activators of the Aryl Hydrocarbon Receptor (AHR). [Related pubchem assays: 2796 (Primary screen (AHR activators in singlicate)), 2845 (Confirmation screen (AHR activators in triplicate)), 434939 (Counterscreen (PXR activators in triplicate)), 2804 (Summary (AHR activators))]; type: ADME
[9] = molecular target: T5, Ubiquitin-conjugating enzyme E2 N (Homo sapiens, UniProt P61088); type: functional;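 further: Dose-response confirmation in a TR-FRET assay detecting UBC13-driven polyubiquitin chain formation, inhibition measured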
T5 sequence (P61088 whole entry): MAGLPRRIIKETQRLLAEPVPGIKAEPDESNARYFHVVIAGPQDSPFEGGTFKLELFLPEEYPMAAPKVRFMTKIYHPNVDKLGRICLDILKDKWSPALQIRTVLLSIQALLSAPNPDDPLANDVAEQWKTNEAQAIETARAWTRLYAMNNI

[10] = luciferase reporter signal suppression in cells – H4 neuroglioma cells, luminescence, dose response (AID 1990); type: functional, cell-based
[11] = alpha-synuclein stem-loop luciferase translation blockers – H4 neuroglioma cells, luminescence, confirmation (AID 1988); type: functional, cell-based
[12] = molecular target: G-protein coupled receptor 55 (Homo sapiens, UniProt Q9Y2T6); assay: inhibition of LPI-stimulated GPR55 beta-arrestin translocation – imaging, U2OS, beta-arrestin-GFP, LPI agonist, primary screen (AID 2013); type: functional;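 further: antagonist potency measured as reduced agonist-driven arrestin aggregation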
[13] = molecular target: T6, Apoptotic protease-activating factor 1 (Homo sapiens, UniProt O14727); type: functional
T6 sequence (O14727 whole entry): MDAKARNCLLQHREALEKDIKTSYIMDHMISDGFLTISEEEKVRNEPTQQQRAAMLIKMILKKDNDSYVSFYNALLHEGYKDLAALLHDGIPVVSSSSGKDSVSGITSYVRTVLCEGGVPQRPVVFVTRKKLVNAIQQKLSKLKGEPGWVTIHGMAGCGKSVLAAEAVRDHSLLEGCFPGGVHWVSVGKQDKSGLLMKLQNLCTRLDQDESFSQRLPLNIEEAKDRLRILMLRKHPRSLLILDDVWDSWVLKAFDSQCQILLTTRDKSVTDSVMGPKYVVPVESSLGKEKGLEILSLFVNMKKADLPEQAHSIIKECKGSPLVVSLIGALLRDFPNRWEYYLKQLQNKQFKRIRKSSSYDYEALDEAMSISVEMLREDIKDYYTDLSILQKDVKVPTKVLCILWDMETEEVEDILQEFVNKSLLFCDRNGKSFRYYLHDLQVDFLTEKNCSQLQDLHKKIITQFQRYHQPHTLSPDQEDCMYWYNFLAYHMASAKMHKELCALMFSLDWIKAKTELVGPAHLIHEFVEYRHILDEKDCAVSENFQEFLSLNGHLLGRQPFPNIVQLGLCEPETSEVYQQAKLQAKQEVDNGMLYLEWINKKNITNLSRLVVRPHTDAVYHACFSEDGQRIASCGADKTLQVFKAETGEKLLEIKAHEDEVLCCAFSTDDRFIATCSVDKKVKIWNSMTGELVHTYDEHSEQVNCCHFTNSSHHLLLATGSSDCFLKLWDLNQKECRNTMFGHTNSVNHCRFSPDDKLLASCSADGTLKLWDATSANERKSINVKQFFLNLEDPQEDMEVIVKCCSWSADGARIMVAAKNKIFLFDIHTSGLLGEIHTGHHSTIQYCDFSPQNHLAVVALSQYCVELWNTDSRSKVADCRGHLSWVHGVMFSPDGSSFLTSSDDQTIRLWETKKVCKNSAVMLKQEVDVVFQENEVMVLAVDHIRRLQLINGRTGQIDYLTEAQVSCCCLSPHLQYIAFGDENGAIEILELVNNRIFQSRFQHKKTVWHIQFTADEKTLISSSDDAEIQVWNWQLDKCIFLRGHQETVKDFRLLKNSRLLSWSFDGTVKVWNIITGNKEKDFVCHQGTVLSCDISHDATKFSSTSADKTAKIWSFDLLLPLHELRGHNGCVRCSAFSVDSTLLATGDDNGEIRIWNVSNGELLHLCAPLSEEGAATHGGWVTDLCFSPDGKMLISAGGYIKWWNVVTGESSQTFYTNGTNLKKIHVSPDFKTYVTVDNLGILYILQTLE

[14] = Luminescence Cell-Based Dose Response HTS to Identify Inhibitors of 5'UTR Stem-Loop Driven Prion Protein mRNA Translation in H4 Neuroglioblastoma Cells. [Related pubchem assays: 1827 (Project Summary), 1813 (Primary HTS)]; type: functional

T2 sequence (Q00975 whole entry): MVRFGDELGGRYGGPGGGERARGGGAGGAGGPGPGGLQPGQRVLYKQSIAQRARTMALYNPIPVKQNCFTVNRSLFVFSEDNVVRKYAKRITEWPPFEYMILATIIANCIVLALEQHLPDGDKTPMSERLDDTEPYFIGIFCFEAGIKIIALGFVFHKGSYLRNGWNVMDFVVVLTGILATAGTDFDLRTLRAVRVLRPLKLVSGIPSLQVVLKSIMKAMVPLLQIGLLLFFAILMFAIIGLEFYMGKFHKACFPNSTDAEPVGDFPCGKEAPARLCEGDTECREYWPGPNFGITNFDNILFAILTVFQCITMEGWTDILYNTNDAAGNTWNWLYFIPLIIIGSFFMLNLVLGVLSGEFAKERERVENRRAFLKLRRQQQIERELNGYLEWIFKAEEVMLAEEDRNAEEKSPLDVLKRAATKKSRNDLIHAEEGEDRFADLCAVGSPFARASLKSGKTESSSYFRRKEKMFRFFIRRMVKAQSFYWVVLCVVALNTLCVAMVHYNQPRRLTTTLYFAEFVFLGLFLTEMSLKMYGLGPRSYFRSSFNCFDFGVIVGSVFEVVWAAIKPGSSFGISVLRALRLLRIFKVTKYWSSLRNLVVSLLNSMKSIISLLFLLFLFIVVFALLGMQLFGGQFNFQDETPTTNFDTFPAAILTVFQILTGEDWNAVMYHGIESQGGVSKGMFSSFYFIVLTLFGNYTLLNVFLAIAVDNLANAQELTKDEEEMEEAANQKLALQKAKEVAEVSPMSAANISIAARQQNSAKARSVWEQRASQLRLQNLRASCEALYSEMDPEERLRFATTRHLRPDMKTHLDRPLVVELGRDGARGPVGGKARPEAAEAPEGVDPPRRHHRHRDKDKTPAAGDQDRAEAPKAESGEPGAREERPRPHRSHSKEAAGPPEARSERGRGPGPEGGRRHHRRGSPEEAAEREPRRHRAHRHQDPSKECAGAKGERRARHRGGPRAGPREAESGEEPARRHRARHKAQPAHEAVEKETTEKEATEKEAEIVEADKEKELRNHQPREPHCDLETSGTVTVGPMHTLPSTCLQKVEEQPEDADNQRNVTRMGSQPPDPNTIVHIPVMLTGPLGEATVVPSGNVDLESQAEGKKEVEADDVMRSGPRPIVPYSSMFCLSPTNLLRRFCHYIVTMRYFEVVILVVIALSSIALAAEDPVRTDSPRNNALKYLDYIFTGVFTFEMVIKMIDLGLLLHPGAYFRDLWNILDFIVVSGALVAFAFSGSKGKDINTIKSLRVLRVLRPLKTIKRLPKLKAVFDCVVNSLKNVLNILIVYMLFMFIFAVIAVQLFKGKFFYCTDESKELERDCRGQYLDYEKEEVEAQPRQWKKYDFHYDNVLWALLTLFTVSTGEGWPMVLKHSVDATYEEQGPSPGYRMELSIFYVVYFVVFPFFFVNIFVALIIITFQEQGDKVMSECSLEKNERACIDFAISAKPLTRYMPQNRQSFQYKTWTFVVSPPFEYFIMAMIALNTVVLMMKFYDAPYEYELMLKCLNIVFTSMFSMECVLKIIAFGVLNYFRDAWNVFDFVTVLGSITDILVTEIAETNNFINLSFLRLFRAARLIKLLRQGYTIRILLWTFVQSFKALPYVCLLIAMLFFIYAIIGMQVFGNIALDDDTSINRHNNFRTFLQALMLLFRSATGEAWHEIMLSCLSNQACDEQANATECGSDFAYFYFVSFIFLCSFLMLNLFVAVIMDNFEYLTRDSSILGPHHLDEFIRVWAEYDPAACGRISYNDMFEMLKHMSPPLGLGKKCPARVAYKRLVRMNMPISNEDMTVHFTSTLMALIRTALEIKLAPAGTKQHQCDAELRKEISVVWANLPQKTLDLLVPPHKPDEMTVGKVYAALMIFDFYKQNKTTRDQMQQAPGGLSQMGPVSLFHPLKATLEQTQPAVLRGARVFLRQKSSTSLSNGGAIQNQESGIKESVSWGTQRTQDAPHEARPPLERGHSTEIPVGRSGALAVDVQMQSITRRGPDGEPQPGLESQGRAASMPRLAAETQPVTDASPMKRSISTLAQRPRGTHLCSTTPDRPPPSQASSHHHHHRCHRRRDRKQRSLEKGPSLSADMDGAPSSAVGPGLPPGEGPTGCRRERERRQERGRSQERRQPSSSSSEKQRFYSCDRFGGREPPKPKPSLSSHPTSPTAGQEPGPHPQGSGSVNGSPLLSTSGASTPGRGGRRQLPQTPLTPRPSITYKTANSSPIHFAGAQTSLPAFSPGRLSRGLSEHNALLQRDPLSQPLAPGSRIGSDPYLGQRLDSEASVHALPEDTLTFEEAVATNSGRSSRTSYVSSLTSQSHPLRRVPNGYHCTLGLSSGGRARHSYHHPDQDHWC
T2 sequence (Q02410 whole entry): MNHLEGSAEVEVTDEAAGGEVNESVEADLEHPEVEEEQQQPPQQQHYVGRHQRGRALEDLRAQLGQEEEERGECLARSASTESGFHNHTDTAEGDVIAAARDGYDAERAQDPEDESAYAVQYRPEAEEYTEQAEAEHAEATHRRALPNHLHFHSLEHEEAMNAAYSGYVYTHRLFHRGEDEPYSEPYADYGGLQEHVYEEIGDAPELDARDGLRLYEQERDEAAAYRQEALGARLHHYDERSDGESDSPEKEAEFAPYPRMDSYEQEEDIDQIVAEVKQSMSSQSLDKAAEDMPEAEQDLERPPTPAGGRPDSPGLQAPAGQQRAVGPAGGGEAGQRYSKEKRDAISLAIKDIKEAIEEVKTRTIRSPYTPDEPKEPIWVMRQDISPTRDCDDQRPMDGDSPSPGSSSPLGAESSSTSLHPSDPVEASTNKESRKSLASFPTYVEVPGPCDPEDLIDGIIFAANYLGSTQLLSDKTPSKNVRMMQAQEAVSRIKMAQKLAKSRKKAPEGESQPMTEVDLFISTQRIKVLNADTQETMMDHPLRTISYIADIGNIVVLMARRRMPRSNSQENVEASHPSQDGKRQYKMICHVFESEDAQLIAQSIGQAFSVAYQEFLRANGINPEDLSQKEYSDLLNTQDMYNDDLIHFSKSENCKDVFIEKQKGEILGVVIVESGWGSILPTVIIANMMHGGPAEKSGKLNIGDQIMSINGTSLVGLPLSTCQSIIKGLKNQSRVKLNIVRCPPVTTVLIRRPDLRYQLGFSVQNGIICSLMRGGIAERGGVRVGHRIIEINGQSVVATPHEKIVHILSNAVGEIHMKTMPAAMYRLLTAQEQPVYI
G-protein coupled receptor 55, sequence (Q9Y2T6 whole entry): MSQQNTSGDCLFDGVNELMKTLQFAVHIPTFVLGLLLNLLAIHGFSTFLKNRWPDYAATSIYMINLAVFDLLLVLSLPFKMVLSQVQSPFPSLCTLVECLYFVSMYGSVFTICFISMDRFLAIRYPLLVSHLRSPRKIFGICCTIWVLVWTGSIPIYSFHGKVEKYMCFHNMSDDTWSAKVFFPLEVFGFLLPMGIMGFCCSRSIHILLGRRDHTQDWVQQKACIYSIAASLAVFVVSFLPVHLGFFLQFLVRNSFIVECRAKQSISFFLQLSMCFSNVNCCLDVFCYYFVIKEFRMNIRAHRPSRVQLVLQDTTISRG
26S proteasome non-ATPase regulatory subunit 14, sequence (O00487 whole entry): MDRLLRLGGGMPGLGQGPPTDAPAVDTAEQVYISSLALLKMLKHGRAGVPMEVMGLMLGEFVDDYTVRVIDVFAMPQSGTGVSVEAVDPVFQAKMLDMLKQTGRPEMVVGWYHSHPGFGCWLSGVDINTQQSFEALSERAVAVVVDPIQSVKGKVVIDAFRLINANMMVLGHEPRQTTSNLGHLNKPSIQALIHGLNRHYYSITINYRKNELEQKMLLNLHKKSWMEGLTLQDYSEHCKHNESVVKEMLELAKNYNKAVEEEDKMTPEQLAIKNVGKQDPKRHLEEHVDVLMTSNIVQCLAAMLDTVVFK
Aryl hydrocarbon receptor, sequence (P35869 whole entry): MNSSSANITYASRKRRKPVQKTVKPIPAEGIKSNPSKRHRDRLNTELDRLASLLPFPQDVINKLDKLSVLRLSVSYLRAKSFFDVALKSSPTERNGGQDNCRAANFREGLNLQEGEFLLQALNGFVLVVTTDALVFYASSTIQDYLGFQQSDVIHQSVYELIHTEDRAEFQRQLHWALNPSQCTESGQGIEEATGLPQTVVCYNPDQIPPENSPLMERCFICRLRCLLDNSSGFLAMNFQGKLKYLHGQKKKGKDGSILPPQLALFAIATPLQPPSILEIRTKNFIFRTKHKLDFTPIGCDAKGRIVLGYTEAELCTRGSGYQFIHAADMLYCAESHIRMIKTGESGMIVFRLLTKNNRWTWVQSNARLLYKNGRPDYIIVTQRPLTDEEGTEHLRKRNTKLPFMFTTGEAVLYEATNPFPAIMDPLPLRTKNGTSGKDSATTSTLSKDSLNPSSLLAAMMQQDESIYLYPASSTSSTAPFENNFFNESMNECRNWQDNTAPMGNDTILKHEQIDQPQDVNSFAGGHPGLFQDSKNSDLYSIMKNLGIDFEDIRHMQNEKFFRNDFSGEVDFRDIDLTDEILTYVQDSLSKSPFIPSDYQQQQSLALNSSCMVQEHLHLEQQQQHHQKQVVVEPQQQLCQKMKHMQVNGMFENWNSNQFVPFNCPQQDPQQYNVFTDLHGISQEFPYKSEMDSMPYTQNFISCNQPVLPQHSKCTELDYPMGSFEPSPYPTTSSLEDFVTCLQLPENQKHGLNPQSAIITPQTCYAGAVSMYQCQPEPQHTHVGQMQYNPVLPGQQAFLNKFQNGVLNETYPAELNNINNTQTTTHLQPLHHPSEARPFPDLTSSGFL
Phospholipase A2, sequence (P04054 whole entry): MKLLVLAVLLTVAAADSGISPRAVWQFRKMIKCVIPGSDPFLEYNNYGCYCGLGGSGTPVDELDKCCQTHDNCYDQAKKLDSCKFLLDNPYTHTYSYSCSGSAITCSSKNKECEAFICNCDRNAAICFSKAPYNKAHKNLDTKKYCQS

For CCc1ccc(-n2cccc2/C=C2/C(=N)N3C(=NC2=O)SN=C3S(C)(=O)=O)cc1, the IC50 [1] was 21.8 µM (active), the IC50 [2] was 30.9 µM (active) and the IC50 (Prothrombin) was 45.8 µM (active). For the same compound, the IC50 (Cysteine protease ATG4B) was 11.2 µM (active), the IC50 [3] was 7.3 µM (active) and the AC50 [4] was 11.5 µM (active). The IC50 (Aminopeptidase N) was 34.4 µM (active), the IC50 [5] was > 50 µM (inactive) and the IC50 (Phospholipase A2) was 12 µM (active).
With Cc1nc(NC2=NCN(CCCN3CCOCC3)CN2)nc2c(C)cccc12 the EC50 [6] was 3.36 µM (active), the IC50 [7] was 3.92 µM (active) and the EC50 (HT-1080) was 51.5 µM (not active). For the same compound, the EC50 [8] was 12.1 µM (not active).
For CN1Cc2c(N3CCOCC3)nc3sc(C(=O)c4ccc(Br)cc4)c(N)c3c2CC1(C)C, the IC50 [9] was > 20 µM (inactive), the EC50 [10] was 10.4 µM (active) and the EC50 [11] was 8.58 µM (active). For the same compound, the IC50 [12] was 3.9 µM (active), the IC50 [13] was 15.8 µM (active) and the EC50 [14] was 11.6 µM (active).
